# Source: patent US20250213574A1, “THERAPEUTIC COMBINATIONS COMPRISING UBIQUITIN- SPECIFIC-PROCESSING PROTEASE 1 (USP1) INHIBITORS AND CHEMOTHERAPY AGENTS” (KSQ Therapeutics, Inc., priority 2022, published 2025)
# Values joined by “and” are separate entries in the source; they are usually repeats but may differ in a detail not shown here. Equal entries are not always repeated.
# Assays:
# BECKER = test: Colony formation (CFU) assay, BECKER; assay type: cell-based; settings: 336 h, CFU ~14 days, wells with DMSO or 300 nM Compound 1, read-out: Chemotherapy nM IC50s
# Protocol: (§1) In vitro experiments were conducted using the colony formation unit (CFU) assay on various cell lines. The CFU assay involved first establishing what cell plating density enabled the development of clearly interspersed colonies on a six-well plate when left to grow for around 14 days. […] At or around day 14 when clearly interspersed colonies were visible in the DMSO-treated wells, the cells were fixed and stained using 0.1% crystal violet in 10% ethanol for 20 minutes at room temperature. The plates were imaged then the amount of crystal violet stain in each well was quantified by extracting the crystal violet into 10% acetic acid and the absorbance measured at 565 nm.
# (§2) For certain cell lines, multiple IC50 values were taken, and those are separated by commas. Synergy scores are in parentheticals.
# GOTO = test: Colony formation (CFU) assay, GOTO; assay type: cell-based; settings: 336 h, nervous system, CFU ~14 days, wells with DMSO or 300 nM Compound 1, read-out: Chemotherapy nM IC50s
# Protocol: as §1, §2
# U251MG = test: Colony formation (CFU) assay, U251MG; assay type: cell-based; settings: Homo sapiens, U-251, 336 h, nervous system, CFU ~14 days, wells with DMSO or 300 nM Compound 1, read-out: Chemotherapy nM IC50s
# Protocol: as §1, §2
# KU1919 = test: Colony formation (CFU) assay, KU1919; assay type: cell-based; settings: KU1919, bladder
# Protocol: as §1, §2
# UMUC3 = test: Colony formation (CFU) assay, UMUC3; assay type: cell-based; settings: UMUC3, bladder
# Protocol: as §1, §2
# [1] = single dose in Balb/c nude mice; Aston W., et al., BMC Cancer 17:684 (2017); cited from earlier work
# HCC1806 = test: Colony formation (CFU) assay, HCC1806; assay type: cell-based; settings: HCC1806, breast; CFU ~14 days; wells with DMSO or 300 nM Compound 1; read-out: Chemotherapy nM IC50s (converted)
# Protocol: as §1, §2
# U2OS = test: Colony formation (CFU) assay, U2OS; assay type: cell-based; settings: bone
# Protocol: as §1, §2
# 647V = test: Colony formation (CFU) assay, 647V; assay type: cell-based; settings: bladder
# Protocol: as §1, §2
# HCT116 = test: Colony formation (CFU) assay, HCT116; assay type: cell-based; settings: HCT116, colon; CFU ~14 days; wells with DMSO or 300 nM Compound 1; read-out: Chemotherapy nM IC50s
# Protocol: as §1, §2
# SUM149PT = test: Colony formation (CFU) assay, SUM149PT; assay type: cell-based; settings: breast
# Protocol: as §1, §2
# HT1376 = test: Colony formation (CFU) assay, HT1376; assay type: cell-based; settings: HT1376, bladder
# Protocol: as §1, §2
# UBLC1 = test: Colony formation (CFU) assay, UBLC1; assay type: cell-based; settings: UBLC1, bladder
# Protocol: as §1, §2
# 5637 = test: Colony formation (CFU) assay, 5637; assay type: cell-based; settings: 5637, bladder
# Protocol: as §1, §2
# HBCx9 = test: Colony formation (CFU) assay, HBCx9; assay type: cell-based; settings: HBCx9, breast
# Protocol: as §1, §2
# HBCx8 = test: Colony formation (CFU) assay, HBCx8; assay type: cell-based; settings: HBCx8, breast
# Protocol: as §1, §2
# NCIH1650 = test: Colony formation (CFU) assay, NCIH1650; assay type: cell-based; settings: NCIH1650, lung
# Protocol: as §1, §2
# [2] = Maximum tolerated dose of Compound 1 cocrystal in combination with cisplatin, non-tumor bearing mice; settings: non-tumor bearing female Balb/c nude mice; Compound 1 oral gavage once daily 28 days + cisplatin i.v. once a week days 0, 7, 14, 21
# Protocol: The maximum tolerated dose (MTD) of the USP1 inhibitor Compound 1 cocrystal in combination with cisplatin was evaluated in non-tumor bearing Balb/c nude mice. 6-8 week old female Balb/c nude mice from Beijing Anikeeper Biotech Co. Ltd were randomized into groups of 5 for control, cisplatin (4 mg/kg) alone, cisplatin (5 mg/kg) alone, cisplatin (6 mg/kg) alone, Compound 1 (50 mg/kg) and cisplatin (4 mg/kg) combination group, Compound 1 (100 mg/kg) and cisplatin (4 mg/kg) combination group, Compound 1 (300 mg/kg) and cisplatin (4 mg/kg) combination group, Compound 1 (50 mg/kg) and cisplatin (5 mg/kg) combination group, Compound 1 (100 mg/kg) and cisplatin (5 mg/kg) combination group, Compound 1 (300 mg/kg) and cisplatin (5 mg/kg) combination group, Compound 1 (50 mg/kg) and cisplatin (6 mg/kg) combination group, Compound 1 (100 mg/kg) and cisplatin (6 mg/kg) combination group, and Compound 1 (300 mg/kg) and cisplatin (6 mg/kg) combination group. Mice were treated with the relevant dose of Compound 1 via oral gavage once daily for 28 days or relevant dose of cisplatin via intravenous injection once a week on days 0, 7, 14, and 21. […]
# Body weights were measured daily. Tolerability was assessed by monitoring body weight and calculating body weight changes as % from body weight on day of treatment start (day 0), as shown in FIG. 1-3. […]
# NCIH596 = test: Colony formation (CFU) assay, NCIH596; assay type: cell-based; settings: NCIH596, lung
# Protocol: as §1, §2
# A549 = test: Colony formation (CFU) assay, A549; assay type: cell-based; settings: A549, lung
# Protocol: as §1, §2
# various cell lines = test: Colony formation (CFU) assay, summary over cell lines of Table 1; assay type: cell-based; settings: combination of USP1 inhibitor (Compound 1, 300 nM) and the chemotherapy agent
# Protocol: as §1
# In certain cell lines, combinations of the disclosure are synergistic. In some aspects, these combinations are determined to have a Bliss score is about 6, about 7, about 8, about 9, about 10, about 11, about 12, about 13, about 14, about 15, about 16, about 17, about 18, about 19, about 20 or about 25.
# [3] = tested on: MDA-MB-436 cell line-derived breast xenograft; test: Anti-tumor activity, MDA-MB-436 cell line-derived breast xenograft model; assay type: in vivo; settings: Compound 1 100 mg/kg p.o. once daily 28 days + cisplatin 2 mg/kg i.v. once weekly x4; MDA-MB-436, NOD SCID mice; FIG. 6A
# Protocol: Six to eight week old female NOD SCID mice from Beijing Anikeeper Biotech CO, Ltd were implanted subcutaneously with 1×10^7 MDA-MB-436 cells. When tumors established to a tumor volume of approximately 240 mm^3 mice were randomized into groups of 5 and were assigned into the following groups: control, cisplatin (2 mg/kg), Compound 1 (100 mg/kg) or Compound 1 (100 mg/kg) and cisplatin (2 mg/kg) combination. Cisplatin was administered intravenously via tail vein once weekly for a total of 4 doses. Compound 1 was administered via oral gavage once daily for 28 days. Body weight and tumor volume were measured twice per week. Tumor volume was calculated as mean and standard error of the mean for each treatment group.
# [4] = tested on: HBCx-8 patient-derived breast xenograft; test: Anti-tumor activity, HBCx-8 patient-derived breast xenograft model; assay type: in vivo, Athymic nude mice; settings: Compound 1 100 mg/kg p.o. once daily 42 days + cisplatin 5 mg/kg i.v. once weekly x3; HBCx-8 PDX, nude mice; FIG. 7A
# Protocol: Six to nine week old female Athymic nude mice from Envigo were anesthetized and a 20 mm^3 tumor fragment placed subcutaneously via incision in the flank. […] Cisplatin was administered intravenously via tail vein once weekly for a total of 3 doses. Compound 1 was administered via oral gavage once daily for 42 days. Body weight and tumor volume were measured twice per week. Tumor volume was calculated as mean and standard error of the mean for each treatment group.
# [5] = tested on: HBCx-11 patient-derived breast xenograft; test: Anti-tumor activity, HBCx-11 patient-derived breast xenograft model; assay type: in vivo, Athymic nude mice; settings: Compound 1 100 mg/kg p.o. once daily 28 days + cisplatin 3 mg/kg i.v. once weekly x4; HBCx-11 PDX, nude mice; FIG. 8A
# Protocol: Six to nine week old female Athymic nude mice from Envigo were anesthetized and a 20 mm^3 tumor fragment placed subcutaneously via incision in the flank. When tumors established to a tumor volume of between 75 and 196 mm^3 mice were randomized into groups of 3 and were assigned into the following groups: control, Compound 1 (100 mg/kg), cisplatin (3 mg/kg) or Compound 1 (100 mg/kg) and cisplatin (3 mg/kg) combination. Cisplatin was administered intravenously via tail vein once weekly for a total of 4 doses. Compound 1 was administered via oral gavage once daily for 28 days. Body weight and tumor volume were measured twice per week. Tumor volume was calculated as mean and standard error of the mean for each treatment group.
# [6] = CFU ~14 days, wells with DMSO or 300 nM Compound 1, read-out: Chemotherapy nM IC50s
# [7] = chemotherapy agent in combination with 300 nM Compound 1
smiles,measurement,setting,value
"Cn1nnc2c(C(N)=O)ncn2c1=O [Temozol., Temozolomide]",IC50,BECKER,< 1 nM
same,IC50,GOTO,< 1 nM
same,IC50,U251MG,< 1 nM
"N.N.[Cl][Pt][Cl] [Cis., cisplatin]",IC50,KU1919; [6],894 nM
same,synergy score,KU1919; [7],(1)
same,IC50,UMUC3; [6],212 nM
same,synergy score,UMUC3; [7],(1)
same,reported MTD,[1],6 mg/kg
same,IC50,HCC1806,97 nM and 130 nM
same,IC50,U2OS; [6],> 316 nM
same,synergy score,U2OS; [7],(3)
same,IC50,647V; [6],1780 nM
same,synergy score,647V; [7],0
same,IC50,HCT116,1260 nM and 895 nM
same,IC50,SUM149PT; [6],> 316 nM
same,synergy score,SUM149PT; [7],(10)
same,IC50,HT1376; [6],734 nM
same,synergy score,HT1376; [7],(10)
same,IC50,UBLC1; [6],308 nM
same,synergy score,UBLC1; [7],(−2)
same,IC50,5637; [6],598 nM
same,synergy score,5637; [7],(12)
same,IC50,HBCx9; [6],473 nM
same,synergy score,HBCx9; [7],(−1)
same,IC50,HBCx8; [6],142 nM
same,synergy score,HBCx8; [7],(1)
same,IC50,NCIH1650; [6],> 1000 nM
same,synergy score,NCIH1650; [7],(−1)
same,combination MTD,[2],6 mg/kg
same,IC50,NCIH596; [6],129 nM
same,synergy score,NCIH596; [7],(0)
same,IC50,A549; [6],> 316 nM
same,synergy score,A549; [7],(11)
same,synergy of combination with USP1 inhibitor,various cell lines,synergy was detected
"COc1ncnc(C2CC2)c1-c1ncc2cnn(Cc3ccc(-c4nc(C(F)(F)F)cn4C(C)C)cc3)c2n1 [Compound 1, 6-(4-cyclopropyl-6-methoxypyrimidin-5-yl)-1-(4-(1-isopropyl-4-(trifluoromethyl)-1H-imidazol-2-yl)benzyl)-1H-pyrazolo[3,4-d]pyrimidine]",anti-tumor activity (tumor volume) of combination versus single agents,[3],more prolonged anti-tumor activity
same,anti-tumor activity (tumor volume) of combination versus single agents,[4],more prolonged anti-tumor activity
same,anti-tumor activity (tumor volume) of combination versus single agents,[5],superior and more prolonged anti-tumor activity
